This is an account of results in US9567322B2, “Substituted tetrahydropyrans and method of use” (AbbVie S.á.r.l., priority 2014, dated 2017).

One assay deals with T1, F508delCFTR (Homo sapiens, UniProt P13569, DEL508-508).
T1 construct: expressed in transfected cells; host or cells: CFBE41o- (CFBE41o-F508delCFTR-HRP), doxycycline-inducible
The assay is described as follows: Cell Surface Expression-Horse Radish Peroxidase (CSE-HRP) assay. The class given is cell-based. To be noted: CFBE41o-F508delCFTR-HRP cells; for EC50: cell surface expression, luminescence readout, 18-24 hours at 33° C., highest concentration tested 20 μM, 8-point curve; for Maximum % activity: maximum at any tested concentration, normalized to on-plate positive control (3 μM) and DMSO. In short, it runs like this:
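CFBE41o- cells expressing F508delCFTR with HRP in the fourth extracellular loop were doxycycline-induced (0.5 μg/mL) for 72 h at 37 °C, then treated 18-24 h at 33 °C with an 8-point 3-fold series from 20 μM. Surface HRP luminescence (luminol) was normalized to DMSO and positive control; EC50 came from variable-slope sigmoidal fits of triplicate plates.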

A further assay addresses T2, F508del/F508del CFTR (Homo sapiens, UniProt P13569, DEL508-508).
T2 construct: cells isolated from CF patients with the homozygous mutation; endogenous in cells; host or cells: primary human bronchial epithelial (hBE) cells from F508del/F508del CF patients
The assay is described as follows: Transepithelial Clamp Circuit (TECC-24) conductance assay on primary human bronchial epithelial cells. It is filed as cell-based. To be noted: primary hBE cells from F508del/F508delCFTR patients; for EC50: equivalent short circuit current (Ieq), correctors 18-24 hours at 37° C., with control potentiator, 6 test concentrations; for Maximum % activity: relative to positive control (3 μM) coupled with control potentiator = 100%. An excerpt: Transepithelial Clamp Circuit on Human Bronchial Epithelial Cells Conductance Assay:
A cell based assay using the primary human bronchial epithelial cells (hBE) was used as a secondary assay to test novel F508delCFTR correctors for their activity on primary hBE cells with F508del/F508del CFTR mutation. The assay used a TECC-24 (Transepithelial Clamp Circuit for 24 wells) instrument that measures the functionality of the mutated channel by measuring the equivalent short circuit current (Ieq) generated by the polarized epithelial cells. The instrument works by measuring the transepithelial potential difference (Vt) and transepithelial resistance (Rt) in an open circuit format, and the Ieq is calculated by using Ohms law (Ieq=Vt/Rt). The assay was run in a 24-well format and all 24-wells were measured at the same time point giving a higher throughput for this assay.
Primary human bronchial epithelial (hBE) cells from F508del/F508delCFTR patients were expanded from 1×10^6 to 250×10^6 cells (Neuberger T, Burton B, Clark H and VanGoor F; Cystic Fibrosis, Methods in Mole Biol 741; eds. Amaral M D and Kunzelmann K, 2011). For this purpose, cells isolated from CF patients with the homozygous mutation were seeded onto 24 well Corning (Cat #3378) filter plates that were coated with 3T3 conditioned media and grown at an air-liquid interface for 35 days using an Ultroser® G supplemented differentiation media. Apical surface mucus was removed 72 hours before the experiment using 3 mM dithiothreitol (DTT) in phosphate buffered saline (PBS). The apical surface was washed again 24 hours before the experiment using PBS. The cells were incubated with the desired dose response of the corrector compounds 18-24 hours at 37° C., 5% CO2. The corrector compounds are only added on the basolateral side of the epithelial cells.
On the day of measuring the corrector activity on the TECC, the cells were switched into a bicarbonate and serum free F-12 Coon's medium and allowed to equilibrate for 90 minutes in a CO2 free incubator. At the time of measurement, the apical and basolateral sides of the filter were bathed with the F-12 Coon's modification media (with 20 mM 4-(2-hydroxyethyl)-1-piperazineethanesulfonic acid (HEPES), pH 7.4 (using 1 M tris(hydroxymethyl)aminomethane (Tris)), and the measurements were made at 36.5° C. Transepithelial voltage (Vt) and transepithelial resistance (Rt) were measured using a 24 channel transepithelial current clamp (TECC-24). Current responses to the sequential addition of benzamil (apical 6 M addition; for inhibiting epithelial ENaC channel), forskolin (apical and basolateral 10 M addition; for activating the CFTR channel), control potentiator (N-(3-carbamoyl-5,5,7,7-tetramethyl-4,7-dihydro-5H-thieno[2,3-c]pyran-2-yl)-1H-pyrazole-5-carboxamide; apical and basolateral 1 M addition; for potentiating the CFTR channel) and bumetanide (basolateral 20 μM addition; for inhibiting the Na:2Cl:K co-transporter, an indirect measure of inhibiting the Cl-secretion driven by CFTR channel) were measured.
All plates contained negative controls (dimethyl sulfoxide, DMSO) which coupled with the control potentiator (N-(3-carbamoyl-5,5,7,7-tetramethyl-4,7-dihydro-5H-thieno[2,3-c]pyran-2-yl)-1H-pyrazole-5-carboxamide) sets the null response and positive controls (3 μM of 3-[(2R,4R)-4-({[1-(2,2-difluoro-1,3-benzodioxol-5-yl)cyclopropyl]carbonyl}amino)-7-methoxy-3,4-dihydro-2H-chromen-2-yl]benzoic acid) coupled with the control potentiator sets the 100% response to measure the correction of the mutated CFTR channel. The maximum percent activity is reported relative to the positive control value.
The % activity measured at each of the 6 test concentrations of the test compound was normalized to the on-plate positive control using the following formula: % activity=[(test compound response−DMSO response)/(positive control response−DMSO response)]*100 […]

T1 sequence (P13569 with tags, fused parts or gaps DEL508-508): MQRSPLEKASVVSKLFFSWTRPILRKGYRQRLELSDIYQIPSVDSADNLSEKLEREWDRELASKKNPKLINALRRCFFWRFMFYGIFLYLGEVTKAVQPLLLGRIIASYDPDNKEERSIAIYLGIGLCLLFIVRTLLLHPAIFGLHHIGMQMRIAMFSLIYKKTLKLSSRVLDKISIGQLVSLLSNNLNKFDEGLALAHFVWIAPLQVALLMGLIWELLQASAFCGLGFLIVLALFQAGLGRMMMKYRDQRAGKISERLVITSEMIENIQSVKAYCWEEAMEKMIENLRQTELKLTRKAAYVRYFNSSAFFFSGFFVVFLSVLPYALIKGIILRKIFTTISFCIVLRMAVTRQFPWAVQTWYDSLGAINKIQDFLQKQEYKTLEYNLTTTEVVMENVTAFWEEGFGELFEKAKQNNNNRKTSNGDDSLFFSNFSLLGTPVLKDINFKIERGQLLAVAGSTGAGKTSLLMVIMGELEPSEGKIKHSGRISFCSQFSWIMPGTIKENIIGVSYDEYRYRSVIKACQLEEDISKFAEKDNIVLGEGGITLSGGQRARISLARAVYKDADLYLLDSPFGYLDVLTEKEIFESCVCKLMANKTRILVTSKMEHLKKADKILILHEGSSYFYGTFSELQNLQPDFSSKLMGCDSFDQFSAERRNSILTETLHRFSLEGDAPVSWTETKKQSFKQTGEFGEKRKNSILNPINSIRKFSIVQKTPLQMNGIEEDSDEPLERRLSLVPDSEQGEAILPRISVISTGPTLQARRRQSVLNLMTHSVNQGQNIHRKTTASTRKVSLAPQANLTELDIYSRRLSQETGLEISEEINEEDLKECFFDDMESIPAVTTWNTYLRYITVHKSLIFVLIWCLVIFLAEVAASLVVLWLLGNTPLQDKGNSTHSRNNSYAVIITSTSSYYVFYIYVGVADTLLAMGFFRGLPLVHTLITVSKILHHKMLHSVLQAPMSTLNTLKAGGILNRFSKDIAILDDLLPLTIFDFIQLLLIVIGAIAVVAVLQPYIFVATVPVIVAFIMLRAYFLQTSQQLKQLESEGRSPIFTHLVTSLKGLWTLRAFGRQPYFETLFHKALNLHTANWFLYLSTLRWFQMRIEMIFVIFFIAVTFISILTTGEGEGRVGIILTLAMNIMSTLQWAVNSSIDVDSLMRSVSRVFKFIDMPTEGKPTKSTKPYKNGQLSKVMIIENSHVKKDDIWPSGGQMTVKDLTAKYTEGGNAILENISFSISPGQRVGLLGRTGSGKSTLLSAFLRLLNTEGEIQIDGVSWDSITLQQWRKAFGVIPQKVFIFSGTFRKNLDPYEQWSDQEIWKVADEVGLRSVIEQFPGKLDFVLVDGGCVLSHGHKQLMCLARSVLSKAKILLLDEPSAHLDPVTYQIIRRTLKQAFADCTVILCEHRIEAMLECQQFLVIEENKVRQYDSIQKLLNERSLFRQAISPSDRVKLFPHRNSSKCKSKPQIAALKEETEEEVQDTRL
T2 sequence (P13569 with tags, fused parts or gaps DEL508-508): as above

By EC50 is commonly meant the midpoint of the concentration-response curve. Turning to `O=C(O)c1ccc([C@H]2C[C@@H](NC(=O)C3(c4ccc5c(c4)OC(F)(F)O5)CC3)CCO2)cc1` (racemic) [Example 14, rac-4-[(2R,4S)-4-({[1-(2,2-difluoro-1,3-benzodioxol-5-yl)cyclopropyl]carbonyl}amino)tetrahydro-2H-pyran-2-yl]benzoic acid], at F508delCFTR, the EC50 turned out to be 2860 nM and the Maximum % activity stood at 113%. For the same molecule, on F508del/F508del CFTR, the EC50 was 1340 nM and the “Maximum % activity” value is reported as 73%.

In the case of `O=C(O)c1cccc([C@H]2C[C@@H](NC(=O)C3(c4ccc5c(c4)OC(F)(F)O5)CC3)C[C@@H](c3ccccc3)O2)c1` (racemic) [Example 24, rac-3-[(2R,4S,6S)-4-({[1-(2,2-difluoro-1,3-benzodioxol-5-yl)cyclopropyl]carbonyl}amino)-6-phenyltetrahydro-2H-pyran-2-yl]benzoic acid], on F508delCFTR, the response was half-maximal at 500 nM (EC50) and the Maximum % activity stood at 109%. Besides, on F508del/F508del CFTR, the concentration for a half-maximal effect (EC50) was 340 nM and the “Maximum % activity” value stood at 76%.

For `O=C(O)c1ccc([C@H]2C[C@@H](NC(=O)C3(c4ccc5c(c4)OC(F)(F)O5)CC3)C[C@@H](c3ccccc3)O2)c(F)c1` (racemic) [Example 60, rac-4-[(2R,4S,6S)-4-({[1-(2,2-difluoro-1,3-benzodioxol-5-yl)cyclopropyl]carbonyl}amino)-6-phenyltetrahydro-2H-pyran-2-yl]-3-fluorobenzoic acid], at F508delCFTR, the concentration giving a half-maximal response (EC50) came out at 270 nM and the Maximum % activity was 97%. In addition, on F508del/F508del CFTR, the EC50 is 140 nM and the “Maximum % activity” value is recorded as 83%.

As to `Cc1cc(C(=O)O)ccc1[C@H]1C[C@H](NC(=O)C2(c3ccc4c(c3)OC(F)(F)O4)CC2)C[C@@H](c2ccccc2)O1` (racemic) [Example 65, rac-4-[(2R,4R,6S)-4-({[1-(2,2-difluoro-1,3-benzodioxol-5-yl)cyclopropyl]carbonyl}amino)-6-phenyltetrahydro-2H-pyran-2-yl]-3-methylbenzoic acid], the Maximum % activity is reported as 100% at F508delCFTR (3 µM) and 84% on F508del/F508del CFTR.

Take `Cc1cc(C(=O)O)cc([C@H]2C[C@@H](NC(=O)C3(c4ccc5c(c4)OC(F)(F)O5)CC3)C[C@@H](c3ccccc3)O2)c1` (racemic) [Example 73, rac-3-[(2R,4S,6S)-4-({[1-(2,2-difluoro-1,3-benzodioxol-5-yl)cyclopropyl]carbonyl}amino)-6-phenyltetrahydro-2H-pyran-2-yl]-5-methylbenzoic acid]: on F508delCFTR, a half-maximal effect (EC50) was put at 410 nM and the Maximum % activity amounted to 90%. Moreover, at F508del/F508del CFTR, the EC50 was determined as 330 nM and the “Maximum % activity” value is 91%.

For `O=C(O)c1ccc([C@H]2C[C@@H](NC(=O)C3(c4ccc5c(c4)OC(F)(F)O5)CC3)C[C@@H](c3ccccc3)O2)cc1` (single isomer, unassigned) [Example 53], on F508delCFTR, the EC50 came out at 300 nM and the Maximum % activity amounted to 81%. In addition, on F508del/F508del CFTR, the concentration for a half-maximal effect (EC50) turned out to be 260 nM and the “Maximum % activity” value is reported as 73%.

Take `Cc1cc(C(=O)O)ccc1[C@H]1C[C@H](NC(=O)C2(c3ccc4c(c3)OC(F)(F)O4)CC2)C[C@@H](c2ccccc2)O1` (single isomer, unassigned) [Example 65]: the figures for the EC50 at F508delCFTR and at F508del/F508del CFTR were 370 nM and 200 nM, respectively.

As to `O=C(O)c1cccc([C@H]2C[C@@H](NC(=O)C3(c4ccc5c(c4)OC(F)(F)O5)CC3)CCO2)c1` [Example 19, 3-[(2R,4S)-4-({[1-(2,2-difluoro-1,3-benzodioxol-5-yl)cyclopropyl]carbonyl}amino)tetrahydro-2H-pyran-2-yl]benzoic acid], at F508delCFTR, the 50% effective concentration (EC50) was found to be 2230 nM and the Maximum % activity came to 100%. In addition, at F508del/F508del CFTR, the half-maximal effective concentration (EC50) was 1030 nM and the “Maximum % activity” value amounted to 87%.

With `O=C(O)c1cccc([C@H]2C[C@@H](NC(=O)C3(c4ccc5c(c4)OC(F)(F)O5)CC3)C[C@@H](c3ccccc3)O2)c1` [Example 27, 3-[(2R,4S,6S)-4-({[1-(2,2-difluoro-1,3-benzodioxol-5-yl)cyclopropyl]carbonyl}amino)-6-phenyltetrahydro-2H-pyran-2-yl]benzoic acid], at F508delCFTR, the EC50 worked out at 280 nM and the Maximum % activity came out at 109%. Besides, on F508del/F508del CFTR, the EC50 came out at 100 nM and the “Maximum % activity” value stood at 94%.

For `O=C(O)c1ccc([C@H]2C[C@@H](NC(=O)C3(c4ccc5c(c4)OC(F)(F)O5)CC3)CCO2)cc1` [Example 31, 4-[(2R,4S)-4-({[1-(2,2-difluoro-1,3-benzodioxol-5-yl)cyclopropyl]carbonyl}amino)tetrahydro-2H-pyran-2-yl]benzoic acid], the EC50 at F508delCFTR amounted to 770 nM; at F508del/F508del CFTR, 1030 nM. Also, the Maximum % activity stood at 102% at F508delCFTR and 65% on F508del/F508del CFTR.
